In ChEMBL document CHEMBL1221163, “Monocarboxylate transporter MCT1 is a target for immunosuppression” (Nat Chem Biol, 2005):
Each block holds one compound with its values, some of them ahead of it. The source made the active and inactive calls. The calls are words filed in the database; no cut-off is given here.

How the values were obtained:
[1] = target: T1, Monocarboxylate transporter 1 (Homo sapiens, UniProt P53985); test: Displacement of [3H]5-[(3-hydroxypropyl)thio]-3-methyl-1-[2-(methyl-t)propyl-2,3-t2]-6-(1-naphthalenylmethyl)-1H-pyrrolo[3,4-d]pyrimidine-2,4(3H,6H)-dione from human MCT1 expressed in INS1 cell membrane; assay type: cell membranes
T1 sequence (P53985 whole entry): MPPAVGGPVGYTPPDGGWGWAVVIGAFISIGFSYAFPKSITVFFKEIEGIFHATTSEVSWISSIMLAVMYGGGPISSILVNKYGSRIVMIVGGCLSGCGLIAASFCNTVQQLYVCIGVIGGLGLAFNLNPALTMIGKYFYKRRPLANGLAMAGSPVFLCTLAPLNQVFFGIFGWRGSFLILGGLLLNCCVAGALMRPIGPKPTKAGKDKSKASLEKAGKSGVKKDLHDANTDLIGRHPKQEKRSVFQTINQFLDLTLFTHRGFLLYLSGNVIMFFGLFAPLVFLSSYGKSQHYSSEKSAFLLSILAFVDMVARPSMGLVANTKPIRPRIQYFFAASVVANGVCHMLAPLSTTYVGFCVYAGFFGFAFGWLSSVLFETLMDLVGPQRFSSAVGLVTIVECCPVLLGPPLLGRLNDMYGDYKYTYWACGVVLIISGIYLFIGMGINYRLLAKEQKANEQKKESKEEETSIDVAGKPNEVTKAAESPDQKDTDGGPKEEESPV

T-cell [2] = test: Increase in intracellular lactate production in PMA-ionomycin stimulated human T cells after 4 hrs; assay type: functional, cell-based
T-cell [3] = test: Reduction in extracellular lactate production in PMA-ionomycin stimulated human T cells after 4 hrs; assay type: functional, cell-based
[4] = Antiproliferative activity against human T cells assessed as inhibition of PMA-ionomycin stimulated cell proliferation after 3 days by [3H]thymidine incorporation assay; assay type: functional, cell-based
T-cell [5] = test: Inhibition of DNA synthesis in PMA-ionomycin stimulated human T cells after 4 hrs by [3H]thymidine incorporation assay; assay type: functional, cell-based
PANC-1 [6] = test: Antiproliferative activity against human PANC1 cells assessed as inhibition of cell proliferation at 1 uM by fluorimetric assay; assay type: functional
T-cell [7] = conditions: Homo sapiens, 50 nM
[8] = Antiproliferative activity against human KIT225 cells assessed as inhibition of IL2-stimulated cell proliferation by fluorimetric assay; assay type: functional, cell-based
THP-1 [9] = test: Antiproliferative activity against human THP1 cells assessed as inhibition of cell proliferation at 1 uM by fluorimetric assay; assay type: functional
T-24 [10] = test: Antiproliferative activity against human T24 cells assessed as inhibition of cell proliferation by fluorimetric assay; assay type: functional, cell-based
HUVEC [11] = test: Antiproliferative activity against human HUVEC assessed as inhibition of basic FGF-stimulated cell proliferation by fluorimetric assay; assay type: functional, cell-based
HUVEC [12] = test: Antiproliferative activity against human HUVEC assessed as inhibition of acidic FGF-stimulated cell proliferation by fluorimetric assay; assay type: functional, cell-based
[13] = Antiproliferative activity against human primary epidermal keratinocytes assessed as inhibition of cell proliferation at 1 uM by fluorimetric assay; assay type: functional; conditions: Keratinocyte
THP-1 [14] = test: Antiproliferative activity against human THP1 cells assessed as inhibition of cell proliferation by fluorimetric assay; assay type: functional, cell-based
T-cell [15] = test: Inhibition of conversion of [1,2-13C2]glucose into [2,3-13C2]lactate in PMA-ionomycin stimulated human T cells at 10 nM after 6 hrs by GC-MS method; assay type: functional, cell-based
HEK293 [16] = test: Antiproliferative activity against HEK293 cells assessed as inhibition of cell proliferation at 1 uM by fluorimetric assay; assay type: functional; conditions: Homo sapiens
PANC-1 [17] = test: Antiproliferative activity against human PANC1 cells assessed as inhibition of cell proliferation by fluorimetric assay; assay type: functional, cell-based
K562 [18] = test: Antiproliferative activity against human K562 cells assessed as inhibition of cell proliferation at 1 uM by fluorimetric assay; assay type: functional
[19] = target: T2, Monocarboxylate transporter 4 (Homo sapiens) (UniProt O15427); test: Inhibition of human MCT4 expressed in INS1 cells assessed as reduction in intracellular acidification at 100 nM after 1 hr by L-Lactate uptake based BCECF staining; assay type: cell-based
T2 sequence (whole entry): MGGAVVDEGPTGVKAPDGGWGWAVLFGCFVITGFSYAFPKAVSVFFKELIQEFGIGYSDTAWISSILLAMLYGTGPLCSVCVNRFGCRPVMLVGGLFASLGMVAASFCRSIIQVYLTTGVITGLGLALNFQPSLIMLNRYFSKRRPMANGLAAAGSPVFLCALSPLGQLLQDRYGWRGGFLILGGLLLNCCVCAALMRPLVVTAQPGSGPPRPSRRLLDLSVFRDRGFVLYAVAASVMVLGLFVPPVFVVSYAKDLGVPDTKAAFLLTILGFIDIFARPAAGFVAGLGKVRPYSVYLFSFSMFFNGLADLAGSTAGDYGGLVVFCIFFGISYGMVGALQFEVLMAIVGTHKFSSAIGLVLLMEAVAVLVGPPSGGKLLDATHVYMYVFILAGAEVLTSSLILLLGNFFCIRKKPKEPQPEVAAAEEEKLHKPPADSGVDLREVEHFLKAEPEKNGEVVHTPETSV

PBMC = test: Antiproliferative activity against human PBMC assessed as inhibition of PMA/ionomycin-stimulated cell proliferation by [3H]thymidine incorporation assay; assay type: functional, cell-based
T-cell [20] = test: Antiproliferative activity against human T cells assessed as inhibition of PMA-ionomycin stimulated cell proliferation by [3H]thymidine incorporation assay; assay type: functional, cell-based
T-cell [21] = conditions: Homo sapiens, 10 uM
T-cell [22] = conditions: Homo sapiens, 10 uM; remark: listed apart in the source
[23] = target: T3, Monocarboxylate transporter 3 (Homo sapiens) (UniProt O95907); test: Inhibition of human MCT3 expressed in INS1 cells assessed as reduction in intracellular acidification at 100 nM after 1 hr by L-Lactate uptake based BCECF staining; assay type: cell-based
T3 sequence (whole entry): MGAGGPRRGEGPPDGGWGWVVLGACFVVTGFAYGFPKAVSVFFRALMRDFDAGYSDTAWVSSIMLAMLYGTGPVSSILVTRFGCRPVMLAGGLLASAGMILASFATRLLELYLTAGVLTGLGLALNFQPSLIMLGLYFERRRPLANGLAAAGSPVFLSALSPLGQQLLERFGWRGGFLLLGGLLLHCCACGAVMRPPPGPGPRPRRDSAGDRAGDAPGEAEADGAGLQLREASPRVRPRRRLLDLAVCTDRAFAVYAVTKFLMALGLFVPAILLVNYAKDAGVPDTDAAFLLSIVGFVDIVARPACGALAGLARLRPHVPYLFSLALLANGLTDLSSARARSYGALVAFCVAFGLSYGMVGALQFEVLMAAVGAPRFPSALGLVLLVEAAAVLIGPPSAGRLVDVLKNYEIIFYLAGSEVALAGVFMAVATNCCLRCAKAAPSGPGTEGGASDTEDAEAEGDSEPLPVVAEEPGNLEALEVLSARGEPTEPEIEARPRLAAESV

Rattus norvegicus [24] = species on record: Rattus norvegicus; conditions: DA/Lewis, 4 mg/kg
HT-29 [25] = test: Antiproliferative activity against human HT-29 cells assessed as inhibition of cell proliferation by fluorimetric assay; assay type: functional, cell-based
SW480 [26] = test: Antiproliferative activity against human SW480 cells assessed as inhibition of cell proliferation by fluorimetric assay; assay type: functional, cell-based
Rattus norvegicus [27] = test: Inhibition of graft-versus-host response-induced lymph node expansion in DA/Lewis recipient rat administered once daily through subcutaneous route; assay type: functional; conditions: sc
[28] = Antiproliferative activity against human KIT225 cells assessed as inhibition of IL2-stimulated cell proliferation at 1 uM by fluorimetric assay; assay type: functional
HUVEC [29] = test: Antiproliferative activity against human HUVEC assessed as inhibition of acidic FGF-stimulated cell proliferation at 1 uM by fluorimetric assay; assay type: functional
HUVEC [30] = test: Antiproliferative activity against human HUVEC assessed as inhibition of basic FGF-stimulated cell proliferation at 1 uM by fluorimetric assay; assay type: functional
T-24 [31] = test: Antiproliferative activity against human T24 cells assessed as inhibition of cell proliferation at 1 uM by fluorimetric assay; assay type: functional
SW480 [32] = test: Antiproliferative activity against human SW480 cells assessed as inhibition of cell proliferation at 1 uM by fluorimetric assay; assay type: functional
HT-29 [33] = test: Antiproliferative activity against human HT-29 cells assessed as inhibition of cell proliferation at 1 uM by fluorimetric assay; assay type: functional
T-cell [34] = test: Antiproliferative activity against Lewis rat T cells assessed as inhibition of PMA-ionomycin stimulated cell proliferation by [3H]thymidine incorporation assay; assay type: functional, cell-based
K562 [35] = test: Antiproliferative activity against human K562 cells assessed as inhibition of cell proliferation by fluorimetric assay; assay type: functional, cell-based
[36] = Antiproliferative activity against human primary epidermal keratinocytes assessed as inhibition of cell proliferation by fluorimetric assay; assay type: functional, cell-based; conditions: Keratinocyte
ZR-75-1 [37] = test: Antiproliferative activity against human ZR-75-1 cells assessed as inhibition of cell proliferation by fluorimetric assay; assay type: functional, cell-based
ZR-75-1 [38] = test: Antiproliferative activity against human ZR-75-1 cells assessed as inhibition of cell proliferation at 1 uM by fluorimetric assay; assay type: functional
HEK293 [39] = test: Antiproliferative activity against HEK293 cells assessed as inhibition of cell proliferation by fluorimetric assay; assay type: functional, cell-based; conditions: Homo sapiens
[40] = target: T1, Monocarboxylate transporter 1; test: Displacement of [3H]5-[(3-hydroxypropyl)thio]-3-methyl-1-[2-(methyl-t)propyl-2,3-t2]-6-(1-naphthalenylmethyl)-1H-pyrrolo[3,4-d]pyrimidine-2,4(3H,6H)-dione from MCT1 in human Jurkat cell membranes

IC50 (T-cell [2]): 4.57 nM | IC50 (T-cell [3]): 11.5 nM | IC50 (T-cell [5]): 9.77 nM
SMILES: CC(C)Cn1c(=O)n(C)c(=O)c2c(C(=O)N3CC[C@@H](O)C3)c(Cc3ccnc4ccccc34)sc21
IC50 [4]: 3.24 nM

IC50 (T-cell [2]): 0.407 nM | IC50 (THP-1 [14]): > 1000 nM | IC50 (PANC-1 [17]): > 1000 nM | inhibition [19]: inactive | inhibition [23]: inactive | IC50 (HT-29 [25]): > 1000 nM | IC50 (SW480 [26]): > 1000 nM | IC50 (K562 [35]): > 1000 nM
SMILES: CC(C)Cn1c(=O)n(C)c(=O)c2c(SCCCO)c(Cc3cccc4ccccc34)sc21
inhibition at 1 µM (PANC-1 [6]): < 20% | inhibition (T-cell [7]): Active | IC50 [8]: 1.1 nM | inhibition at 1 µM (THP-1 [9]): < 20% | IC50 (T-24 [10]): > 1000 nM | IC50 (HUVEC [11]): > 1000 nM | IC50 (HUVEC [12]): > 1000 nM | inhibition at 1 µM [13]: < 20% | inhibition (T-cell [15]): Active | inhibition at 1 µM (HEK293 [16]): < 20% | inhibition at 1 µM (K562 [18]): < 20% | inhibition (PBMC): Active | inhibition (T-cell [20]): Active | inhibition (T-cell [21]): inactive | inhibition (T-cell [22]): inactive | inhibition (Rattus norvegicus [24]): Active | ED50 (Rattus norvegicus [27]): 1.4 mg/kg/day | inhibition at 1 µM [28]: 61% | inhibition at 1 µM (HUVEC [29]): < 20% | inhibition at 1 µM (HUVEC [30]): < 20% | inhibition at 1 µM (T-24 [31]): < 20% | inhibition at 1 µM (SW480 [32]): < 20% | inhibition at 1 µM (HT-29 [33]): < 20% | IC50 [4]: 0.234 nM | inhibition (T-cell [34]): Active | IC50 [36]: > 1000 nM | IC50 (ZR-75-1 [37]): > 1000 nM | inhibition at 1 µM (ZR-75-1 [38]): < 20% | IC50 (HEK293 [39]): > 1000 nM

IC50 (T-cell [2]): 1.55 nM | IC50 (T-cell [3]): 4.27 nM | IC50 (T-cell [5]): 3.31 nM
SMILES: CC(C)Cn1c(=O)n(C)c(=O)c2c(C(=O)N3CC[C@@H](O)C3)c(Cc3c[nH]c4ccccc34)sc21
IC50 [4]: 0.912 nM

More lines, now with the values behind:

SMILES: CC(C)Cc1nn(C)c(=O)c2cn(Cc3ccc(N=[N+]=[N-])c([125I])c3)cc12
Ki ([1]; read-out: Ki): 23 nM

SMILES: CC(C)Cn1c(=O)n(C)c(=O)c2c(C(=O)N3CCCC3)c(Cc3ccccc3C(F)(F)F)sc21
IC50 (T-cell [2]): 3.31 nM | IC50 (T-cell [3]): 5.37 nM | IC50 [4]: 2.88 nM | IC50 (T-cell [5]): 10 nM

SMILES: CC(C)Cn1c(=O)n(C)c(=O)c2c(C(=O)N3CC=CC3)c(Cc3ccccc3C(F)(F)F)sc21
Ki ([1]; read-out: pKi (converted)): 10.7 nM | IC50 (T-cell [2]): 4.79 nM | IC50 (T-cell [3]): 10.2 nM | Ki [40]: 3.39 nM | IC50 [4]: 12 nM | IC50 (T-cell [5]): 11.7 nM
